Test systems include A498 renal; BT-549 breast; CCRF-CEM leukemia; HCT-15 colon; LOX IMVI melanoma; MCF7 breast; MOLT-4 leukemia; OVCAR-8 ovarian; SK-MEL-5 melanoma; UACC-62 melanoma; HOP-62 NSCLC.
Common to all, as to experiment: NCI tumour cell line growth inhibition, 48 h

We go through 13 molecules from PubChem BioAssay (NCI).

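A five-concentration, 48-hour dose response in 96-well plates underlies each endpoint, interpolated linearly between surrounding concentrations. Here, GI50 denotes the concentration required for 50% inhibition of growth. TGI marks complete inhibition of growth.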

In the case of `O=[N+]([O-])C1(C2([N+](=O)[O-])CCCC2)CCCC1`, the TGI with A498 renal, with BT-549 breast, with CCRF-CEM leukemia, in the experiment with HCT-15 colon, in the experiment with LOX IMVI melanoma and with MCF7 breast was over 100 µM each time. For the same molecule, the TGI with MOLT-4 leukemia, in the experiment on OVCAR-8 ovarian, in the experiment on SK-MEL-5 melanoma and in the experiment on UACC-62 melanoma was over 100 µM each time.
Consider `C[C@@H]1OC(=O)C[C@H]2CC(=O)N(CCc3cn(S(=O)(=O)C(F)(F)F)c4ccccc34)C[C@@H]21`, for which the TGI in the experiment on A498 renal, in the experiment with BT-549 breast, with CCRF-CEM leukemia, in the experiment on HCT-15 colon, in the experiment with HOP-62 NSCLC and in the experiment on MCF7 breast was over 100 µM throughout. Also, the TGI with MOLT-4 leukemia, in the experiment with OVCAR-8 ovarian, with SK-MEL-5 melanoma and with UACC-62 melanoma was over 100 µM each time.
Regarding `CC1=C(C(=O)OC(C)C)C(c2ccccc2[N+](=O)[O-])C(C(=O)OC(CO[N+](=O)[O-])CO[N+](=O)[O-])=C(C)N1` (stereo not given), the TGI was 26 µM in the experiment on BT-549 breast; 16.2 µM with HCT-15 colon; 11.2 µM in the experiment on HOP-62 NSCLC; 11.3 µM in the experiment with LOX IMVI melanoma; 27.9 µM with MCF7 breast; 5.9 µM with MOLT-4 leukemia. In addition, the TGI with OVCAR-8 ovarian is 22 µM; in the experiment with SK-MEL-5 melanoma, 4.78 µM; with UACC-62 melanoma, 8.14 µM.
As to `COCN1C(=O)[C@@H]2CCCN2C(=O)c2cc([N+](=O)[O-])ccc21`, the TGI with A498 renal, in the experiment on BT-549 breast, with HCT-15 colon, in the experiment with HOP-62 NSCLC, in the experiment on LOX IMVI melanoma and in the experiment on MCF7 breast was over 100 µM each time. In addition, the TGI in the experiment on OVCAR-8 ovarian, in the experiment on SK-MEL-5 melanoma and in the experiment on UACC-62 melanoma was over 100 µM each time.
Take `c1ccc(-c2cc(-c3cc(-c4ccccc4)n(-c4ccccc4)n3)nn2-c2ccccc2)cc1`: the TGI in the experiment with A498 renal, with BT-549 breast, with CCRF-CEM leukemia, in the experiment on HCT-15 colon, in the experiment with HOP-62 NSCLC and with MCF7 breast was over 100 µM in each case. Besides, the TGI in the experiment on MOLT-4 leukemia, in the experiment with OVCAR-8 ovarian, in the experiment on SK-MEL-5 melanoma and in the experiment with UACC-62 melanoma was over 100 µM each time.
For the molecule `CC(=O)c1cccc(NC2C(N)C(NC(=O)N(C)C)(C(C)O)C(C)(O)C2(O)COC(=O)c2c(C)cccc2O)c1` (stereo not given), the TGI in the experiment with A498 renal was under 0.001 µM; in the experiment on BT-549 breast, 0.012 µM; with CCRF-CEM leukemia, 0.205 µM; in the experiment on HCT-15 colon, 1.01 µM; in the experiment on HOP-62 NSCLC, 0.0786 µM; with MCF7 breast, 1.13 µM. Moreover, the TGI in the experiment on MOLT-4 leukemia amounted to 0.835 µM; in the experiment on OVCAR-8 ovarian, 0.131 µM; in the experiment with SK-MEL-5 melanoma it was 0.0227 µM; with UACC-62 melanoma it was 0.119 µM.
In the case of `COC/C=C\[C@@]1(O)CCCC[C@@H]1CC(OC)OC`, the TGI in the experiment with BT-549 breast was over 100 µM; in the experiment with CCRF-CEM leukemia, over 64.3 µM; with HCT-15 colon it was over 100 µM; in the experiment with HOP-62 NSCLC, over 100 µM; in the experiment on LOX IMVI melanoma, 20.9 µM; in the experiment on MOLT-4 leukemia, 31.4 µM. For the same molecule, the results for the TGI in the experiment with OVCAR-8 ovarian and in the experiment with SK-MEL-5 melanoma were over 85.8 µM and over 100 µM, respectively.
For the molecule `NNC(=O)c1n[nH]nc1SSc1n[nH]nc1C(=O)NN`, the TGI in the experiment on BT-549 breast, in the experiment with CCRF-CEM leukemia, in the experiment with HCT-15 colon, with HOP-62 NSCLC, in the experiment with LOX IMVI melanoma and in the experiment with MCF7 breast was over 100 µM in each case. For the same molecule, the TGI with MOLT-4 leukemia, in the experiment with OVCAR-8 ovarian, in the experiment on SK-MEL-5 melanoma and in the experiment with UACC-62 melanoma was over 100 µM each time.
Take `CC1OC(=O)c2ccccc2NC1=O` (stereo not given): the TGI in the experiment on A498 renal, with BT-549 breast, with CCRF-CEM leukemia, in the experiment on HCT-15 colon, in the experiment with HOP-62 NSCLC and with LOX IMVI melanoma was over 100 µM each time. In addition, the TGI in the experiment with MOLT-4 leukemia, with OVCAR-8 ovarian, with SK-MEL-5 melanoma and in the experiment with UACC-62 melanoma was over 100 µM each time.
On to `N#Cc1c(C#N)c(SSc2c(C#N)c(C#N)c(N)n2-c2ccccc2)n(-c2ccccc2)c1N`, for which the TGI is 44.1 µM in the experiment with A498 renal; 30.7 µM in the experiment with BT-549 breast; over 24.4 µM in the experiment on HCT-15 colon; over 69.1 µM in the experiment with HOP-62 NSCLC; over 100 µM in the experiment with LOX IMVI melanoma; 5.84 µM in the experiment with MCF7 breast. For the same molecule, the TGI in the experiment on MOLT-4 leukemia is over 100 µM; with OVCAR-8 ovarian it was over 100 µM; in the experiment with SK-MEL-5 melanoma, 31.9 µM; with UACC-62 melanoma, 46.4 µM.
Take `CN1CCN(c2ccc3[nH]c(C4=C(O)c5nc(CO)n(C)c5C(=O)C4=O)nc3n2)CC1`: the TGI in the experiment on BT-549 breast, in the experiment with CCRF-CEM leukemia, in the experiment on HCT-15 colon, in the experiment on HOP-62 NSCLC, with LOX IMVI melanoma and in the experiment with MOLT-4 leukemia was over 100 µM throughout. The TGI in the experiment with OVCAR-8 ovarian and in the experiment on UACC-62 melanoma was over 100 µM throughout.
In the case of `CCOC(=O)CCC(NC(=O)OCc1ccccc1)C(=O)NC(CCC(=O)OCC)C(=O)NC(CCC(=O)OCC)C(=O)NC(CCC(=O)OCC)C(=O)NC(CCC(=O)OCC)C(=O)OCC` (stereo not given), the TGI in the experiment with BT-549 breast, in the experiment with CCRF-CEM leukemia, with HCT-15 colon, with HOP-62 NSCLC, with LOX IMVI melanoma and with MCF7 breast was over 100 µM each time. In addition, the TGI with MOLT-4 leukemia, in the experiment on OVCAR-8 ovarian, with SK-MEL-5 melanoma and in the experiment on UACC-62 melanoma was over 100 µM each time.
For `O=C(CCN1CCCC1)Nc1ccc2c(NCCCc3ccccc3)c3ccccc3nc2c1`, the GI50 is 1310 nM in the experiment with A498 renal; 1610 nM with BT-549 breast; 562 nM with CCRF-CEM leukemia; 2620 nM with HCT-15 colon; 739 nM with LOX IMVI melanoma; 467 nM in the experiment with MCF7 breast. Besides, the values for the GI50 in the experiment with SK-MEL-5 melanoma and in the experiment on UACC-62 melanoma were 1610 nM and 1540 nM, respectively. The TGI in the experiment with A498 renal was determined as 3.14 µM; with BT-549 breast it was 3.11 µM; in the experiment on CCRF-CEM leukemia, 3.03 µM; in the experiment with HCT-15 colon it was 10.5 µM; in the experiment on LOX IMVI melanoma, 2.04 µM; in the experiment with MCF7 breast, 1.8 µM. The TGI in the experiment with SK-MEL-5 melanoma stood at 2.97 µM; in the experiment with UACC-62 melanoma, 2.93 µM.
